Patent US7048951B1, “Systems and methods for topical treatment with nitric oxide” (Nioxx, LLC, priority 1998, dated 2006)
Read-outs that look alike come from different tables or passages of the source.

What was measured:
pKa of acids = format: physicochemical
[1] = cited from earlier work
[2] = preservative concentration 0.18% in carbomer gel (propylparaben 0.05% listed in next row)
[3] = preservative concentration 0.01% in carbomer gel
[4] = preservative concentration 0.1% in carbomer gel

Row | Molecule | acid strength relative to nitrous acid (pKa of acids) | Appearance [1, 2] | Compatible [1, 2] | Appearance [1, 3] | Compatible [1, 3] | Appearance [1, 4] | Compatible [1, 4]
1 | O=C(O)/C=C\C(=O)O [Maleic acid] | about 30 times | – | – | – | – | – | –
2 | COC(=O)c1ccc(O)cc1 [Methylparaben] | – | Clear | Yes | – | – | – | –
3 | O=C([O-])c1ccccc1.[Na+] [Sodium Benzoate] | – | – | – | Clear | Yes | Cloudy | No
4 | C[CH2][Hg][S]c1ccccc1C(=O)[O-].[Na+] [Thiomersal] | – | – | – | Clear | Yes | Clear | Yes
5 | Benzalkonium Chloride | – | – | – | Clear | Yes | Cloudy | No
